# Assay results from PMC7731220, “Pharmacophore Modeling and 3D-QSAR Study of Indole and Isatin Derivatives as Antiamyloidogenic Agents Targeting Alzheimer’s Disease” (Molecules, 2020).
# What was measured:
# Aβ40 = Aβ40 (Homo sapiens, UniProt P05067); assay: Inhibition of Aβ40 self-aggregation (thioflavin T fluorescence, 2% HFIP); details: read-out: Aβ40 Aggregation Inhibition % at 100 μM
# Chain of Aβ40 (P05067 672-711 limits assumed): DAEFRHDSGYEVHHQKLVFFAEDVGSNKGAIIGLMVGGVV
# Description: All the newly prepared compounds were tested in a routine in vitro assay of inhibition of Aβ40 self-aggregation [25].
# All assays were performed in 96-well plates (Greiner Bio-One, Kremsmünster, Austria) using an Infinite M1000 Pro plate reader (Tecan, Cernusco s.N., Italy). Inhibition data were obtained as mean ± SD (for single concentration points) or mean ± SEM from three independent experiments (for IC50s), using Prism (GraphPad Prism version 5.00 for Windows, GraphPad Software, San Diego, CA, USA).
# Assay of aggregation of Aβ40 (EzBiolab, Carmel, IN, USA) was performed as described [25], using 2% of 1,1,1,3,3,3-hexafluoro-2-propanol as aggregation enhancer and spectrofluorimetric detection of thioflavin T fluorescence as the probe of amyloid aggregation.
compound,measurement,setting,value
"O=C1C(c2c(O)nc3ccccc3c2O)=Nc2ccccc21 [Compound 43, 2-(2,4-Dihydroxyquinolin-3-yl)-3H-indol-3-one]",inhibition at 100 µM,Aβ40,17 ± 3%
same,melting point,,90 to 92 °C
